Organism: Rattus norvegicus
Experiment: DrugMatrix - Regimen: Daily Repeat
Type: toxicity, organism-based, Sprague-Dawley
Design: regimen Daily Repeat, gender Male, age 6-8 weeks
Conditions: in vivo, po, route oral GAVAGE, vehicle 100 % WATER; for ABSOLUTE BASOPHIL / ABSOLUTE EOSINOPHIL / ABSOLUTE LYMPHOCYTE / ABSOLUTE MONOCYTE / ABSOLUTE SEGMENTED NEUTROPHIL / BASOPHIL / EOSINOPHIL / ERYTHROCYTE COUNT / HEMATOCRIT / HEMOGLOBIN / LEUKOCYTE COUNT / LYMPHOCYTE / MEAN CORPUSCULAR HEMOGLOBIN / MEAN CORPUSCULAR HEMOGLOBIN CONCENTRATION / MEAN CORPUSCULAR VOLUME / MONOCYTE / NEUTROPHIL / NUCLEATED RED BLOOD CELLS / PLATELET COUNT: tissue Blood; for ALANINE AMINOTRANSFERASE / ALBUMIN / ALKALINE PHOSPHATASE / ASPARTATE AMINOTRANSFERASE / BLOOD UREA NITROGEN / CARBON DIOXIDE / CHLORIDE / CHOLESTEROL / CREATINE PHOSPHOKINASE / CREATININE / GLUCOSE / LACTATE DEHYDROGENASE / LIPASE / PHOSPHORUS / POTASSIUM / SODIUM / TOTAL BILIRUBIN / TOTAL PROTEIN / URIC ACID: tissue Plasma
[1] = 0 mg/kg, 72 h, dose level Control, time 3 day
[2] = 0 mg/kg, 120 h, dose level Control, time 5 day
[3] = 2 mg/kg, 72 h, dose level Low, time 3 day

SMILES: CC(C)(C)c1ccc(C(=O)CCCN2CCC(OC(c3ccccc3)c3ccccc3)CC2)cc1 [EBASTINE]
- ABSOLUTE BASOPHIL [1]: 0 CELLS/uL
- ABSOLUTE EOSINOPHIL [1]: 123.17 CELLS/uL
- ABSOLUTE LYMPHOCYTE [1]: 12677.83 CELLS/uL
- ABSOLUTE MONOCYTE [1]: 66.17 CELLS/uL
- ABSOLUTE SEGMENTED NEUTROPHIL [1]: 1149.5 CELLS/uL
- BASOPHIL [1]: 0%
- EOSINOPHIL [1]: 0.83%
- ERYTHROCYTE COUNT [1]: 5.26 x10E6/uL
- HEMATOCRIT [1]: 33.07%
- HEMOGLOBIN [1]: 13.43 G/DL
- LEUKOCYTE COUNT [1]: 14.02 x10E3/uL
- LYMPHOCYTE [1]: 90.17%
- MEAN CORPUSCULAR HEMOGLOBIN [1]: 25.62 pg
- MEAN CORPUSCULAR HEMOGLOBIN CONCENTRATION [1]: 40.65 G/DL
- MEAN CORPUSCULAR VOLUME [1]: 63 fL
- MONOCYTE [1]: 0.5%
- NEUTROPHIL [1]: 8.5%
- NUCLEATED RED BLOOD CELLS [1]: 0.17 /100WBC
- PLATELET COUNT [1]: 1142.83 x10E3/uL
- ALANINE AMINOTRANSFERASE [1]: 45.17 u/L
- ALBUMIN [1]: 3.78 G/DL
- ALKALINE PHOSPHATASE [1]: 340.17 u/L
- ASPARTATE AMINOTRANSFERASE [1]: 77.33 u/L
- BLOOD UREA NITROGEN [1]: 14.67 mg/dL
- CARBON DIOXIDE [1]: 28.67 mmol/L
- CHLORIDE [1]: 101.17 MEQ/L
- CHOLESTEROL [1]: 77.67 mg/dL
- CREATINE PHOSPHOKINASE [1]: 263.67 u/L
- CREATININE [1]: 0.15 mg/dL
- GLUCOSE [1]: 169.33 mg/dL
- LACTATE DEHYDROGENASE [1]: 230 u/L
- LIPASE [1]: 9.67 u/L
- PHOSPHORUS [1]: 11.8 mg/dL
- POTASSIUM [1]: 5.91 MEQ/L
- SODIUM [1]: 142.88 MEQ/L
- TOTAL BILIRUBIN [1]: 0.22 mg/dL
- TOTAL PROTEIN [1]: 5.7 G/DL
- URIC ACID [1]: 1.35 mg/dL
- ABSOLUTE BASOPHIL [2]: 0 CELLS/uL
- ABSOLUTE EOSINOPHIL [2]: 125 CELLS/uL
- ABSOLUTE LYMPHOCYTE [2]: 13809 CELLS/uL
- ABSOLUTE MONOCYTE [2]: 351 CELLS/uL
- ABSOLUTE SEGMENTED NEUTROPHIL [2]: 1581.67 CELLS/uL
- BASOPHIL [2]: 0%
- EOSINOPHIL [2]: 0.67%
- ERYTHROCYTE COUNT [2]: 5.53 x10E6/uL
- HEMATOCRIT [2]: 34.83%
- HEMOGLOBIN [2]: 13.9 G/DL
- LEUKOCYTE COUNT [2]: 15.87 x10E3/uL
- LYMPHOCYTE [2]: 87.5%
- MEAN CORPUSCULAR HEMOGLOBIN [2]: 25.25 pg
- MEAN CORPUSCULAR HEMOGLOBIN CONCENTRATION [2]: 40.08 G/DL
- MEAN CORPUSCULAR VOLUME [2]: 63.05 fL
- MONOCYTE [2]: 2.17%
- NEUTROPHIL [2]: 9.67%
- NUCLEATED RED BLOOD CELLS [2]: 0 /100WBC
- PLATELET COUNT [2]: 1044 x10E3/uL
- ALANINE AMINOTRANSFERASE [2]: 50.67 u/L
- ALBUMIN [2]: 4.33 G/DL
- ALKALINE PHOSPHATASE [2]: 395 u/L
- ASPARTATE AMINOTRANSFERASE [2]: 86 u/L
- BLOOD UREA NITROGEN [2]: 15.33 mg/dL
- CARBON DIOXIDE [2]: 29.33 mmol/L
- CHLORIDE [2]: 101.5 MEQ/L
- CHOLESTEROL [2]: 71.33 mg/dL
- CREATINE PHOSPHOKINASE [2]: 323.17 u/L
- CREATININE [2]: 0.18 mg/dL
- GLUCOSE [2]: 145.67 mg/dL
- LACTATE DEHYDROGENASE [2]: 389.5 u/L
- LIPASE [2]: 9.83 u/L
- PHOSPHORUS [2]: 11.35 mg/dL
- POTASSIUM [2]: 6.39 MEQ/L
- SODIUM [2]: 142.77 MEQ/L
- TOTAL BILIRUBIN [2]: 0.18 mg/dL
- TOTAL PROTEIN [2]: 6.1 G/DL
- URIC ACID [2]: 1.52 mg/dL
- ABSOLUTE BASOPHIL [3]: 0 CELLS/uL
- ABSOLUTE EOSINOPHIL [3]: 62.33 CELLS/uL
- ABSOLUTE LYMPHOCYTE [3]: 12860.33 CELLS/uL
- ABSOLUTE MONOCYTE [3]: 62.33 CELLS/uL
- ABSOLUTE SEGMENTED NEUTROPHIL [3]: 1348.33 CELLS/uL
- BASOPHIL [3]: 0%
- EOSINOPHIL [3]: 0.33%
- ERYTHROCYTE COUNT [3]: 5.22 x10E6/uL
- HEMATOCRIT [3]: 34.2%
- HEMOGLOBIN [3]: 13.67 G/DL
- LEUKOCYTE COUNT [3]: 14.33 x10E3/uL
- LYMPHOCYTE [3]: 89.67%
- MEAN CORPUSCULAR HEMOGLOBIN [3]: 26.2 pg
- MEAN CORPUSCULAR HEMOGLOBIN CONCENTRATION [3]: 40 G/DL
- MEAN CORPUSCULAR VOLUME [3]: 65.5 fL
- MONOCYTE [3]: 0.33%
- NEUTROPHIL [3]: 9.67%
- NUCLEATED RED BLOOD CELLS [3]: 0 /100WBC
- PLATELET COUNT [3]: 1183.33 x10E3/uL
- ALANINE AMINOTRANSFERASE [3]: 47.67 u/L
- ALBUMIN [3]: 3.87 G/DL
- ALKALINE PHOSPHATASE [3]: 322 u/L
- ASPARTATE AMINOTRANSFERASE [3]: 75.33 u/L
- BLOOD UREA NITROGEN [3]: 14.33 mg/dL
- CARBON DIOXIDE [3]: 32.67 mmol/L
- CHLORIDE [3]: 99.67 MEQ/L
- CHOLESTEROL [3]: 75.67 mg/dL
- CREATINE PHOSPHOKINASE [3]: 258.67 u/L
- CREATININE [3]: 0.13 mg/dL
- GLUCOSE [3]: 151 mg/dL
- LACTATE DEHYDROGENASE [3]: 188 u/L
- LIPASE [3]: 10 u/L
- PHOSPHORUS [3]: 11.23 mg/dL
- POTASSIUM [3]: 6.55 MEQ/L
- SODIUM [3]: 141.57 MEQ/L
- TOTAL BILIRUBIN [3]: 0.2 mg/dL
- TOTAL PROTEIN [3]: 5.63 G/DL
- URIC ACID [3]: 1.3 mg/dL

Source: ChEMBL document CHEMBL3885881, “DrugMatrix”
